One assay addresses human SOS1 (Homo sapiens (Human), UniProt Q07889). Kind of assay: Surface Plasmon Resonance (SPR) SOS1 Binding Assay. Conditions: biotinylated SOS1 (res. 564-1049), 25° C., kinetic or steady state fit, read-out: KD for hSOS1. The method in brief:
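Biotinylated human SOS1 (res. 564-1049, N-terminal Avi tag) captured on streptavidin chip to ~3,000 RU; 25° C., Tris buffer pH 8.0 with 1 mM MgCl2, 5% DMSO running buffer. Compound series (top 100, 50 or 0.5 μM) injected 60 s, dissociation 600 s; double-referenced KD from 1:1 kinetic or steady-state fit.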

Assay [1] addresses SOS1:KRAS (G12C) interaction (Homo sapiens (Human), UniProt Q07889). Kind of assay: SOS1-KRas(G12C) FRET Assay. It counts as binding. Conditions: 0.5 nM His10-SOS1 (res. 564-1049), 2.5 nM GST-KRAS (res. 1-169, G12C); read-out: SOS-KRas(G12C) FRET IC50. The method in brief:
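Compounds were pre-incubated 15 min at 25° C with SOS1 (His10, res. 564-1049; 0.5 nM final) and anti-6His-XL665, then GST-KRAS G12C (res. 1-169; 2.5 nM final) with anti-GST-Eu(K) was added for 2 h at RT. The buffer was PBS, 0.1% BSA, 5 mM MgCl2, 100 mM KF, 5 mM DTT with 0.5% DMSO. The 665/615 nm signal was normalised to DMSO and no-SOS1 controls, and IC50 and Hill coefficient were fitted by non-linear regression.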

pIC50, pKd: −log10 of the molar value.

By pKd is commonly meant −log10 of the Kd, conventionally taken in molar units. For orientation: pIC50 means −log10 of the IC50, conventionally taken in molar units.

Chain of SOS1:KRAS (G12C) interaction (Q07889 564-1049, stated change not applied): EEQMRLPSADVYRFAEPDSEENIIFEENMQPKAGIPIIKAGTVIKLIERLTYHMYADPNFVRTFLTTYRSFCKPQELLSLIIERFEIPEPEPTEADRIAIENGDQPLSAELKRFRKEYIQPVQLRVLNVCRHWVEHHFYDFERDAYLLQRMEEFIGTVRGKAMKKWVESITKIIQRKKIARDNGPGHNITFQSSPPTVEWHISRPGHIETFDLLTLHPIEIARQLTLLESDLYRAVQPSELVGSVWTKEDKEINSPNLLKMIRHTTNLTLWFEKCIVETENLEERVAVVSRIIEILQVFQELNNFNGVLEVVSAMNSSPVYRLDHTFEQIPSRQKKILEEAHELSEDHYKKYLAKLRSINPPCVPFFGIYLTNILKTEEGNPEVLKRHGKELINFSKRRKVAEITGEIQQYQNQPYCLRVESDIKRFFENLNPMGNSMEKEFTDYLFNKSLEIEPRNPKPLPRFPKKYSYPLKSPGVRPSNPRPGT
Chain of human SOS1 (Q07889 564-1049): as the sequence (Q07889 564-1049, stated change not applied) above

For `COc1c(=O)n([C@H]2CCOC[C@H]2F)cc2c(N[C@H](C)c3cccc(C(F)F)c3F)nn(C)c(=O)c12` (single isomer, unassigned) [Example 59], on human SOS1, the pKd was 6.36. Besides, the pIC50 in assay [1] was 5.98.

For the compound `Cc1c([C@@H](C)Nc2nn(C)c(=O)c3c(Cl)c(=O)n(C4CC4)cc23)cccc1C(F)(F)F` [Example 11, (R)-8-chloro-6-cyclopropyl-2-methyl-4-((1-(2-methyl-3-(trifluoromethyl)phenyl)ethyl)amino)-2,6-dihydropyrido[3,4-d]pyridazine-1,7-dione], on human SOS1, the negative logarithm of the Kd (pKd) is 7.02. The pIC50 in assay [1] is 6.23.

`Cc1c([C@@H](C)Nc2nn(C)c(=O)c3cc(=O)n(C4CCOCC4)cc23)cccc1C(F)(F)F` [Example 4, (R)-2-methyl-4-((1-(2-methyl-3-(trifluoromethyl)phenyl)ethyl)amino)-6-(tetrahydro-2H-pyran-4-yl)-2,6-dihydropyrido[3,4-d]pyridazine-1,7-dione]: the pKd at human SOS1 was 7.66. In addition, in assay [1], the pIC50 is 7.26.

In the case of `Cc1c([C@@H](C)Nc2nn(C)c(=O)c3cc(=O)n([C@@]4(C)CCOC4)cc23)cccc1C(F)(F)F` (single isomer, unassigned) [Example 54], on human SOS1, the pKd was 6.90. The pIC50 in assay [1] was 6.55.

For `Cc1c([C@@H](C)Nc2nn(C)c(=O)c3c([C@H]4CCCN4)c(=O)n(C4CC4)cc23)cccc1C(F)(F)F` [Example 35, 6-cyclopropyl-2-methyl-4-(((R)-1-(2-methyl-3-(trifluoromethyl)phenyl)ethyl)amino)-8-((R)-pyrrolidin-2-yl)-2,6-dihydropyrido[3,4-d]pyridazine-1,7-dione], the negative logarithm of the Kd (pKd) at human SOS1 is 7.77. Further, the pIC50 in assay [1] was 7.11.

Take `C[C@@H](Nc1nn(C)c(=O)c2c(Br)c(=O)n(C3(C(F)F)CC3)cc12)c1cccc(C(F)F)c1F` [Example 72, (R)-8-bromo-4-((1-(3-(difluoromethyl)-2-fluorophenyl)ethyl)amino)-6-(1-(difluoromethyl)cyclopropyl)-2-methyl-2,6-dihydropyrido[3,4-d]pyridazine-1,7-dione]: the pKd at human SOS1 is 7.22. Moreover, the pIC50 in assay [1] was 7.17.

Consider `CC(=O)c1c(=O)n(C2CC2)cc2c(N[C@H](C)c3cccc(C(F)(F)F)c3C)nn(C)c(=O)c12` [Example 48, (R)-8-acetyl-6-cyclopropyl-2-methyl-4-((1-(2-methyl-3-(trifluoromethyl)phenyl)ethyl)amino)-2,6-dihydropyrido[3,4-d]pyridazine-1,7-dione], for which the pKd at human SOS1 is 7.12. The pIC50 in assay [1] is 6.72.

As for `C[C@@H](Nc1nn(C)c(=O)c2cc(=O)n([C@H]3CCOC[C@H]3F)cc12)c1cccc(C(F)F)c1F` (single isomer, unassigned) [Example 33], the pKd at human SOS1 is 8.10. In assay [1], the pIC50 is 7.50.

On to `Cc1c([C@@H](C)Nc2nn(C)c(=O)c3cc(=O)n(C4CCNCC4)cc23)cccc1C(F)(F)F` [Example 22, (R)-2-methyl-4-((1-(2-methyl-3-(trifluoromethyl)phenyl)ethyl)amino)-6-(piperidin-4-yl)-2,6-dihydropyrido[3,4-d]pyridazine-1,7-dione], for which the pKd at human SOS1 is 7.13. In assay [1], the pIC50 was 6.46.

As for `Cc1c([C@@H](C)Nc2nn(C)c(=O)c3c(C#N)c(=O)n(C4CC4)cc23)cccc1C(F)(F)F` [Example 10, (R)-6-cyclopropyl-2-methyl-4-((1-(2-methyl-3-(trifluoromethyl)phenyl)ethyl)amino)-1,7-dioxo-1,2,6,7-tetrahydropyrido[3,4-d]pyridazine-8-carbonitrile], the pKd on human SOS1 is 6.87. Further, in assay [1], the pIC50 is 5.65.

For the compound `COc1c(=O)n(C2CC2)cc2c(N[C@H](C)c3cccc(C(F)(F)F)c3C)nn(C)c(=O)c12` [Example 6, (R)-6-cyclopropyl-8-methoxy-2-methyl-4-((1-(2-methyl-3-(trifluoromethyl)phenyl)ethyl)amino)-2,6-dihydropyrido[3,4-d]pyridazine-1,7-dione], the negative-log Kd (pKd) on human SOS1 is 7.36. Also, in assay [1], the pIC50 is 6.79.

For the compound `C[C@H](Nc1nn(C)c(=O)c2cc(=O)n(C3CCOCC3)cc12)c1cccc(C(F)(F)[C@@H]2CCCO2)c1F` (single isomer, unassigned) [Example 44], the pKd on human SOS1 is less than 5.30. In assay [1], the pIC50 is 5.24.

Consider `Cc1c([C@@H](C)Nc2nn(C)c(=O)c3c([C@@H]4CCCN4)c(=O)n(C4CC4)cc23)cccc1C(F)(F)F` (single isomer, unassigned) [Example 34], for which, at human SOS1, the negative logarithm of the Kd (pKd) was 8.00. Besides, the pIC50 in assay [1] is 7.36.

For `C[C@@H](Nc1nn(C)c(=O)c2cc(=O)n([C@@H]3CCOC[C@@H]3F)cc12)c1cccc(C(F)F)c1F` (single isomer, unassigned) [Example 32], on human SOS1, the pKd is 6.64. In assay [1], the pIC50 was 5.98.

As to `Cc1cc([C@H](C)Nc2nn(C)c(=O)c3cc(=O)n(C4CC4)cc23)cc2c1c(C#N)nn2C` (single isomer, unassigned) [Example 28], the pKd at human SOS1 was 5.52. The pIC50 in assay [1] was 4.12.

`Cc1c([C@@H](C)Nc2nn(C)c(=O)c3cc(=O)n([C@]4(C)CCOC4)cc23)cccc1C(F)(F)F` (single isomer, unassigned) [Example 55]: the pKd at human SOS1 was 7.85. The pIC50 in assay [1] was 7.49.

Take `C[C@@H](Nc1nn(C)c(=O)c2cc(=O)n(C3CC3)cc12)c1cccc2sccc12` [Example 64, (R)-4-((1-(benzo[b]thiophen-4-yl)ethyl)amino)-6-cyclopropyl-2-methyl-2,6-dihydropyrido[3,4-d]pyridazine-1,7-dione]: the pKd on human SOS1 was 7.51. Also, the pIC50 in assay [1] is 6.90.

In the case of `C[C@@H](Nc1nn(C)c(=O)c2cc(=O)n(C3CCOCC3)cc12)c1cccc2sccc12` [Example 62, (R)-4-((1-(benzo[b]thiophen-4-yl)ethyl)amino)-2-methyl-6-(tetrahydro-2H-pyran-4-yl)-2,6-dihydropyrido[3,4-d]pyridazine-1,7-dione], at human SOS1, the pKd was 7.89. In assay [1], the pIC50 is 7.12.

As to `C[C@@H](Nc1nn(C)c(=O)c2cc(=O)n(C3CC4(COC4)C3)cc12)c1cccc(C(F)F)c1F` [Example 51, (R)-4-((1-(3-(difluoromethyl)-2-fluorophenyl)ethyl)amino)-2-methyl-6-(2-oxaspiro[3.3]heptan-6-yl)pyrido[3,4-d]pyridazine-1,7(2H,6H)-dione], the pKd on human SOS1 is 7.77. For the same compound, in assay [1], the pIC50 is 7.33.

For `COc1c(=O)n(C2(C(F)F)CC2)cc2c(N[C@H](C)c3cccc(C(F)F)c3F)nn(C)c(=O)c12` [Example 73, (R)-4-((1-(3-(difluoromethyl)-2-fluorophenyl)ethyl)amino)-6-(1-(difluoromethyl)cyclopropyl)-8-methoxy-2-methyl-2,6-dihydropyrido[3,4-d]pyridazine-1,7-dione], the pKd at human SOS1 was 7.57. Besides, the pIC50 in assay [1] was 7.22.

As for `Cc1c([C@@H](C)Nc2nn(C)c(=O)c3c(OCC4CC4)c(=O)n(C4CC4)cc23)cccc1C(F)(F)F` [Example 82, (R)-6-cyclopropyl-8-(cyclopropylmethoxy)-2-methyl-4-((1-(2-methyl-3-(trifluoromethyl)phenyl)ethyl)amino)-2,6-dihydropyrido[3,4-d]pyridazine-1,7-dione], the pKd on human SOS1 was 7.29. Further, the pIC50 in assay [1] was 6.32.

These data come from patent US20240279221A1, “HETEROCYCLIC COMPOUNDS AND METHODS OF USE” (Schrödinger, Inc., priority 2021, published 2024).
